In patent US11339111B2, “Polyketide compound and derivatives thereof for use in the prevention and treatment of a neurological disorder” (SOCIETE DES PRODUITS NESTLE S.A., priority 2017, dated 2022):
Like-named read-outs stand apart in the source and are kept apart here.

Tests used:
[1] = test system: human iPSc derived into astrocytes; assay: Lactate release dose response in human iPSc derived astrocytes; format: cell-based; conditions: 2 hours treatment
Method: Dose response curves were established for compounds identified in the screen to stimulate lactate secretion. The EC50 values for the stimulation of lactate secretion were determined using primary human IPS cell derived astrocytes.
Differentiated human iPSCs (iCell astrocytes, and iCell cardiomyocytes) were obtained from Cellular Dynamics International (CDI, Madison, Wis., USA). iCell astrocytes were cultured in DMEM supplemented with 10% fetal calf serum and N2 complement. iCell cardiomyocytes were maintained in a medium supplied by CDI. Cell cultures were kept in a humidified atmosphere (5% CO2) at 37° C.
Dose response of compounds on lactate release from human iPSc derived into astrocyte fitted with a log (agonist) vs response variable slope to extract efficacy (EC50). Mean±SEM in duplicate.
The unsaturated polyketide/macrocyclic lactone compound mentioned throughout the Examples section is proposed to have the structure corresponding to Compound A as described herein. The toxicity expressed in log IC50 (ATP content after 24 hours compound treatment on human iPSc derived into cardiomyocyte) was compared against the lactate release in log EC50 (lactate secretion after 2 hours compound treatment in human iPSc derived into astrocytes).
Y-axis: relative fluorescence unit, X-axis: logarithm concentration of the compound in mg/ml for fraction and molar for pure compound. […]

[2] = test system: human iPSc derived into cardiomyocyte; assay: Toxicity - ATP content (CellTiter-Glo); format: cell-based; conditions: ATP content after 24 hours
Method: iCell Cardiomyocytes were seeded in 384-well plates. Eight days later cells were treated for 24 hours with compounds. Cell viability was determined by the quantification of intracellular ATP after cell lysis. ATP was used as an indicator of metabolically active cells. ATP was measured using a luminescent cell viability assay (CellTiter-Glo®; […]). Luminescence was measured after 20 min in a Bioteck Synergie Neo multimode reader.
Toxicity of the unsaturated polyketide/macrocyclic lactone compounds were evaluated in human IPS cell derived cardiomyocytes by measuring total ATP in cell lysates.
Dose response of compounds on human iPSc derived into cardiomyocyte with evaluation of the ATP level using cell titer glow. Results were normalized between untreated cells (100%) and positive control (0%).
The unsaturated polyketide/macrocyclic lactone compound mentioned throughout the Examples section is proposed to have the structure corresponding to Compound A as described herein. […]
Y-axis: relative fluorescence unit in percentage, X-axis: logarithm concentration of the compound in mg/ml for fraction and molar for pure compound. […]

- EC50 ([1]; pure compound (head: mg/ml or M; molar for pure compound), read-out: Astrocytes Lactate release EC50): 1600 nM
- EC50 ([1]; pure compound, log of molar concentration, read-out: Astrocytes Lactate release logEC50 (converted)): 2000 nM
SMILES: C/C1=C\C(C)C(=O)CC(O)/C(C)=C/C(C)CC(C)CCC(C(C)C(=O)O)OC(=O)C(C)C1 (stereo not shown)
- IC50 ([2]; pure compound (molar), read-out: Cardiomyocytes Toxicity IC50): > 100000 nM
- IC50 ([2]; pure compound, log of molar concentration, read-out: Cardiomyocytes Toxicity log IC50 (converted)): > 100000 nM
